Experimental data published in patent US10835611B2, “Neurotherapeutic nanoparticle compositions comprising leukemia inhibitory factor” (Yale University, priority 2012, dated 2020).

Experiments:
[1] = test system: primary rat E14 VM tissue; test: Anti-Thy-1 directed BDNF or 7,8-DHF nanoparticles versus free factor in primary rat E14 VM cultures; assay type: cell-based; conditions: 7 days in vitro
Experimental: To compare the effect of brain-derived neurotrophic factor (BDNF), or the BDNF agonist 7,8-dihydroxy flavone (7,8-DHF), when in a nano-particulate formulation targeted to Thy-1, versus free, primary rat E14 VM tissue was mixed with 100 μl of nanoparticle solution (0.05 mg; 0.1 mg; 1.0 mg nanoparticles/ml), or with free growth factor (10 nM; 100 nM; 1 μM; 10 μM) immediately prior to plating. After first confirming presence of Thy-1 antigen on the surface of TH+ neurons (data not shown), anti-Thy-1 decorated nanoparticles were prepared as either empty; or BDNF-nanoparticles; or 7,8 DHF-nanoparticles. Cultures were fixed after 7 days in vitro and analysed via immunocytochemistry for tyrosine hydroxylase positive cells. […] This is shown for 7,8 DHF-nanoparticles in FIG. 11A and FIG. 11B where the dose-response curve is similar to that reported by Jang et al (Jang et al, Proc. Natl. Acad. Sci. USA, 2010), with the exception of the high dose (10 μM) decline observed here.

[2] = test system: dopaminergic neurons in E14 VM cultures; test: LIF treatment during dissociation of E14 VM tissue, TH+ neuron count in monolayer culture; assay type: cell-based, rat; conditions: tissue dissociated in 0.1 ng/ml LIF
Experimental: The VM of E14 rat foetuses was dissected and dissociated in medium with or without 0.1 ng/ml soluble LIF. The tissue was then plated in monolayer culture and grown for 2, 3 or 5 days prior to fixing. Dissociated cells were seeded in monolayer cultures and fixed after 2, 3 or 5 days in vitro (DIV).

[3] = test system: dopaminergic neurons in E14 VM cultures; test: Dopaminergic apoptosis (TH, cleaved caspase-3, condensed nucleus) in E14 VM monolayer cultures; assay type: cell-based, rat
Experimental: A subset of tyrosine hydroxylase neurons co-localised with cleaved caspase-3 and a condensed nucleus, both markers of apoptotic cells. […] Immunocytochemical analysis was performed to determine whether LIF treatment (soluble or targeted nanoparticles) decreased the number of apoptotic dopaminergic neurons in these cultures.
E14 VM monolayer cultures, treated with soluble LIF or LIF/empty nanoparticles were fixed after 2, 3 or 5 days.

[4] = test system: dopaminergic neurons in E14 VM cultures; test: Growth medium supplemented with soluble LIF, TH+ neuron count in E14 VM cultures; assay type: cell-based, rat
Experimental: The VM of E14 rat foetuses was dissected and dissociated in standard conditions. Primary E14 VM tissue was dissociated and grown as monolayer cultures. After plating cells were chronically treated with soluble LIF in their growth medium ranging from 0.1 ng/ml to 100 ng/ml.

[5] = test system: E14 VM neural progenitor cells; test: E14 VM neurosphere expansion with soluble LIF, subsequent differentiation in monolayer culture; assay type: cell-based, rat; conditions: 0.1 ng/ml LIF during neurosphere expansion; monolayer without LIF
Experimental: To investigate the effect of LIF treatment on the differentiation of E14 VM, tissue was grown as neurospheres in expansion medium with or without 0.1 ng/ml soluble LIF. Primary ventral midbrain tissue was expanded in medium containing the mitogens EGF and FGF-2 for 5 days. These neurospheres were then dissociated into single cells and plated in monolayer culture in the absence of LIF. After 5 days of growth these cultures were analysed via immunocytochemistry for neural and astroglial differentiation (FIGS. 6A and 6B, showing morphology + or − LIF). The presence of LIF during the expansion of E14 VM had no effect on subsequent differentiation (FIG. 7 showing results after 5 and 10 days).

| number of tyrosine hydroxylase positive neurons ([4]; growth medium with 0.1 ng/ml LIF, 3 and 5 days in vitro) | Molecule | longest neurite length [1] | number of primary neurites [1] | serotonergic cells versus dopaminergic cells [1] | number of TH+ neurons ([2]; 3 and 5 days in vitro) | number of TH+ neurons ([2]; 2 days in vitro) | level of dopaminergic apoptosis ([3]; 2 days in vitro) | dopaminergic apoptosis ([3]; 3 days in vitro) | number of TH positive neurons ([4]; all LIF dosages above 0.1 ng/ml (up to 100 ng/ml)) | subsequent neural and astroglial differentiation [5] |
| --- | --- | --- | --- | --- | --- | --- | --- | --- | --- | --- |
| – | O=c1cc(-c2ccccc2)oc2c(O)c(O)ccc12 [7,8-DHF, 7,8-dihydroxy flavone, reference compound] | neither soluble 7,8-DHF nor 7,8-DHF-nano altered | neither soluble 7,8-DHF nor 7,8-DHF-nano altered | constant ratio | – | – | – | – | – | – |
| significantly increase | LIF: leukaemia inhibitory factor, member of the IL-6 family of cytokines, used soluble in medium | – | – | – | effect was lost | significantly more | significant reduction | did not reach statistical significance | no significant effect | no effect |
| – | BDNF: brain-derived neurotrophic factor (protein, UniProt P23560 19-247, looked up) Neurotrophic factor BDNF …: APMKEANIRGQGGLAYPGVRTHGTLESVNGPKAGSRGLTSLADTFEHVIEELLDEDQKVRPNEENNKDADLYTSRVMLSSQVPLEPPLLFLLEEYKNYLDAANMSMRVRRHSDPARRGELSVCDSISEWVTAADKKTAVDMSGGTVTVLEKVPVSKGQLKQYFYETKCNPMGYTKEGCRGIDKRHWNSQCRTTQSYVRALTMDSKKRIGWRFIRIDTSCVCTLTIKRGR | significant increase | significant increase | constant ratio | – | – | – | – | – | – |
